Key:
[1] = system: HIV-1GB8; experiment: Inhibition of syncytia formation in JM cells infected with HIV-1GB8 (3 days incubation, 37° C.); type: cell-based; set-up: unit not given here; conditions: HIV-1GB8, 3 days at 37° C.
From the text: (§1) Inhibition of the maturation of envelope glycoproteins gp 160 and gp 120 in human HIV by α-glucosidase I inhibitors result in reductions in infectivity and syncytial formation of the HIV virus. AIDS, Vol. 5(6): 693-698 (1991). Therefore, in order to test the antiviral activity of the compounds of the present invention, the following protocol was followed.
(§2) JM cells were infected with HIV-1GB8 for one hour at room temperature. The cells were then washed and subsequently grown in the presence of varying concentrations of test compound or no compound (control). […] The cell-free supernatant fluid was then titrated for levels of infectivity.
ED50 means 50% effective dose corresponds to the concentration of inhibitor required to lower the syncytia counts by 50%.

[2] = system: HIV-1GB8; experiment: Infectivity titration of cell-free supernatant from HIV-1GB8 infected JM cells; type: cell-based
From the text: as §1, §2
Infectivity is expressed as log10 determined by the highest dilution of cell-free medium at which syncytia was detected. The results in Table 1 were found.

[3] = Human immunodeficiency virus 1, 72 h, Conc 0.06 mM, read-out: % Control
[4] = Human immunodeficiency virus 1, 72 h, Conc 0.125 mM, read-out: % Control
[5] = Conc 0.5 mM, control 10^3 (Example 44) or 10^4 (Example 43)
[6] = Human immunodeficiency virus 1, 72 h, Conc 0.5 mM, read-out: % Control

## C[Si](C)(C)CN1C[C@H](O)[C@@H](O)[C@H](O)[C@H]1CO [Example 32, 1,5-dideoxy-1,5-{[(trimethylsilyl)methyl]imino}-D-glucitol]
[1]
  ED50 (concentration required to lower the syncytia counts by 50%): 540

## C[Si](C)(C)CCCCN1C[C@H](O)[C@@H](O)[C@H](O)[C@H]1CO [Example 36, 1,5-dideoxy-1,5-{[4-(trimethylsilyl)butyl]imino}-D-glucitol]
[2]; Conc 0.06 mM, control 10^4
  Infectivity (highest dilution of cell-free medium at which syncytia was detected): 10^3
[2]; Conc 0.125 mM, control 10^4
  Infectivity (highest dilution of cell-free medium at which syncytia was detected): 10^3
[2]; [3]
  activity at 60 µM: 73%
[2]; [4]
  activity at 125 µM: 37%

## C[Si](C)(C)/C=C/CN1C[C@H](O)[C@@H](O)[C@H](O)[C@H]1CO [Example 40, 1,5-dideoxy-1,5-{[(E)-3-(trimethylsilyl)-2-propenyl]imino}-D-glucitol]
[1]
  ED50 (concentration required to lower the syncytia counts by 50%): 20
[2]; Conc 0.06 mM, control 10^4
  Infectivity (highest dilution of cell-free medium at which syncytia was detected): 10^3
[2]; Conc 0.125 mM, control 10^4
  Infectivity (highest dilution of cell-free medium at which syncytia was detected): 10^2
[2]; [3]
  activity at 60 µM: 79%
[2]; [4]
  activity at 125 µM: 23%

## C[Si](C)(C)c1cccc(CN2C[C@H](O)[C@@H](O)[C@H](O)[C@H]2CO)c1 [Example 43, 1,5-Dideoxy-1,5-[{[3-(Trimethylsilyl)Phenyl]Methyl}Imino]-D-Glucitol]
[1]
  ED50 (concentration required to lower the syncytia counts by 50%): > 250
[2]; Conc 0.25 mM, control 10^4
  Infectivity (highest dilution of cell-free medium at which syncytia was detected): 10^4
[2]; [5]
  Infectivity (highest dilution of cell-free medium at which syncytia was detected): 10^4
[2]; Human immunodeficiency virus 1, 72 h, Conc 0.25 mM, read-out: % Control
  activity at 250 µM: 100%
[2]; [6]
  activity at 500 µM: 100%

## C[Si](C)(C)CCCN1C[C@H](O)[C@@H](O)[C@H](O)[C@H]1CO [Example 44, 1,5-Dideoxy-1,5-{[3-(trimethylsilyl)propyl]imino}-D-glucitol]
[2]; [5]
  Infectivity (highest dilution of cell-free medium at which syncytia was detected): 10^1
[2]; [6]
  activity at 500 µM: 0%

## C[Si](C)(C)c1ccc(CN2C[C@H](O)[C@@H](O)[C@H](O)[C@H]2CO)cc1 [Example 46, 1,5-dideoxy-1,5-[{[4-(trimethylsilyl)phenyl]methyl}imino]-D-glucitol]
[1]
  ED50 (concentration required to lower the syncytia counts by 50%): 10
[2]; Conc 0.06 mM, control 10^4
  Infectivity (highest dilution of cell-free medium at which syncytia was detected): 10^3
[2]; Conc 0.125 mM, control 10^4
  Infectivity (highest dilution of cell-free medium at which syncytia was detected): 10^2
[2]; [3]
  activity at 60 µM: 55%
[2]; [4]
  activity at 125 µM: 28%

## C[Si](C)(C)CCCCCN1C[C@H](O)[C@@H](O)[C@H](O)[C@H]1CO [Example 49, 1,5-dideoxy-1,5-{[5-(trimethylsilyl)pentyl]imino}-D-glucitol]
[2]; Conc 0.006 mM, control 10^3
  Infectivity (highest dilution of cell-free medium at which syncytia was detected): 10^2
[2]; Conc 0.012 mM, control 10^3
  Infectivity (highest dilution of cell-free medium at which syncytia was detected): 10^1
[2]; Human immunodeficiency virus 1, 72 h, Conc 0.006 mM, read-out: % Control
  activity at 6 µM: 63%
[2]; Human immunodeficiency virus 1, 72 h, Conc 0.012 mM, read-out: % Control
  activity at 12 µM: 24%

## C[Si](C)(C)CCCCCCN1C[C@H](O)[C@@H](O)[C@H](O)[C@H]1CO [Example 52, 1,5-Dideoxy-1,5-{[6-(Trimethylsilyl)Hexyl]Imino}-D-Glucitol]
[1]
  ED50 (concentration required to lower the syncytia counts by 50%): 33

## C[Si](C)(CCCCN1C[C@H](O)[C@@H](O)[C@H](O)[C@H]1CO)c1ccccc1 [Example 53, 1,5-dideoxy-1,5-{[4-(dimethylphenylsilyl)butyl]imino}-D-glucitol]
[1]
  ED50 (concentration required to lower the syncytia counts by 50%): 12

## C[Si](C)(C)/C=C\CN1C[C@H](O)[C@@H](O)[C@H](O)[C@H]1CO [Example 54, 1,5-dideoxy-1,5-{[(Z)-3-(trimethylsilyl)-2-propenyl]imino}-D-glucitol]
[1]
  ED50 (concentration required to lower the syncytia counts by 50%): 310

## CC(C)(C)[Si](C)(C)/C=C/CN1C[C@H](O)[C@@H](O)[C@H](O)[C@H]1CO [Example 55, 1,5-Dideoxy-1,5-{[(E)-3-(t-butyldimethylsilyl)-2-propenyl]imino}-D-glucitol]
[1]
  ED50 (concentration required to lower the syncytia counts by 50%): 45

## CC(C)(C)[Si](C)(C)/C=C\CN1C[C@H](O)[C@@H](O)[C@H](O)[C@H]1CO [Example 59, 1,5-Dideoxy-1,5-{[(Z)-3-(t-butyldimethylsilyl)-2-propenyl]-imino-}-D-glucitol]
[1]
  ED50 (concentration required to lower the syncytia counts by 50%): 190

## CC[Si](C)(C)CN1C[C@H](O)[C@@H](O)[C@H](O)[C@H]1CO [Example 60, 1,5-Dideoxy-1,5-{[(Ethyldimethylsilyl)-Methyl]Imino}-D-Glucitol]
[1]
  ED50 (concentration required to lower the syncytia counts by 50%): 18

From US5536732A, “N-derivatives of 1-deoxy nojirimycin” (Merrell Pharmaceuticals Inc., priority 1990, dated 1996)
